target: GLP-1 Receptor (Homo sapiens, UniProt P43220); assay: GLP-1R agonist cAMP stimulation assay (HEK293/GLP1R/CRE-LUC cells, HTRF cAMP dynamic 2 kit); type: cell-based; conditions: HEK293/CRE-Luc cell line stably expressing the GLP-1 Receptor; 30 min incubation at 37° C.
In short: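 HEK293 cells stably expressing GLP-1R with CRE-Luc, 1000 cells/well in DPBS with 0.5 mM IBMX and 0.10% BSA, exposed to half-log compound dilutions for 30 min at 37 °C. cAMP measured by HTRF (665/615 nm) after 1 h at room temperature.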

Chain of GLP-1 Receptor (P43220 24-463): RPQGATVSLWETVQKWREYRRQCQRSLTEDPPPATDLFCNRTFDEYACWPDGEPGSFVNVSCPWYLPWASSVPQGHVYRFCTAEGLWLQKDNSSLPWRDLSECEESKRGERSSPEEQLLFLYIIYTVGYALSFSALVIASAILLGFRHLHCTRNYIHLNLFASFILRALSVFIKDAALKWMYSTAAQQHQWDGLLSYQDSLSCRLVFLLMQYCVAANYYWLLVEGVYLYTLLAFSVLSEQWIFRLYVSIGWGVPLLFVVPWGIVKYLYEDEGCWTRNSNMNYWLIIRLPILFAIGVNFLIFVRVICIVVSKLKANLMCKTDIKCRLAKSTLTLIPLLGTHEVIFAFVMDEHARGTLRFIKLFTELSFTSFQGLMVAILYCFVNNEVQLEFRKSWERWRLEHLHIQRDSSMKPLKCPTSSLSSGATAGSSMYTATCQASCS

| SMILES | EC50 [nM] |
| --- | --- |
| Fc1cc(Cl)ccc1COc1nc2c(cc1C(F)(F)F)CCN(Cc1nc3cc(-c4nnc(C(F)(F)F)[nH]4)ncc3n1C[C@@H]1CCOC1)C2 [Compound 77, 2-[(4-chloro-2-fluorophenyl)methoxy]-7-[(3-{1[(3S)-oxolan-3-yl]methyl}-6-[5-(trifluoromethyl)-4H-1,2,4-triazol-3-yl]-3H-imidazo[4,5-c]pyridin-2-yl)methyl]-3-(trifluoromethyl)-5,6,7,8-tetrahydro-1,7-naphthyridine] | 1 to 300 |
| Fc1cc(Cl)ccc1COc1nc2c(cc1C(F)(F)F)CCN(Cc1nc3cc(-c4nnc(C(F)(F)F)[nH]4)ncc3n1C[C@H]1CCCO1)C2 [Compound 78, 2-[(4-chloro-2-fluorophenyl)methoxy]-7-[(3-{1[(2R)-oxolan-2-yl]methyl}-6-[5-(trifluoromethyl)-4H-1,2,4-triazol-3-yl]-3H-imidazo[4,5-c]pyridin-2-yl)methyl]-3-(trifluoromethyl)-5,6,7,8-tetrahydro-1,7-naphthyridine] | 1 to 300 |
| Fc1cc(Cl)ccc1COc1nc2c(cc1C(F)(F)F)CCN(Cc1nc3cc(-c4nnc(C(F)(F)F)[nH]4)ncc3n1C[C@@H]1CCCO1)C2 [Compound 79, 2-[(4-chloro-2-fluorophenyl)methoxy]-7-[(3-{1[(2S)-oxolan-2-yl]methyl}-6-[5-(trifluoromethyl)-4H-1,2,4-triazol-3-yl]-3H-imidazo[4,5-c]pyridin-2-yl)methyl]-3-(trifluoromethyl)-5,6,7,8-tetrahydro-1,7-naphthyridine] | 1 to 300 |
| COCCn1c(CN2CCc3cc(C(F)(F)F)c(OCc4ccc(Cl)cc4F)nc3C2)nc2cc(-c3nnc(C(F)(F)F)[nH]3)ncc21 [Compound 80, 2-[(4-chloro-2-fluorophenyl)methoxy]-7-{[3-(2-methoxyethyl)-6-[5-(trifluoromethyl)-4H-1,2,4-triazol-3-yl]-3H-imidazo[4,5-c]pyridin-2-yl]methyl}-3-(trifluoromethyl)-5,6,7,8-tetrahydro-1,7-naphthyridine] | 1 to 300 |
| CC(c1nc2cc(-c3nnc(C(F)(F)F)[nH]3)ncc2n1C[C@@H]1CCO1)N1CCc2cc(C(F)(F)F)c(OCc3ccc(Cl)cc3F)nc2C1 (stereo partly drawn) [Compound 82, 2-[(4-chloro-2-fluorophenyl)methoxy]-7-[1-(3-{[(2S)-oxetan-2-yl]methyl}-6-[5-(trifluoromethyl)-4H-1,2,4-triazol-3-yl]-3H-imidazo[4,5-c]pyridin-2-yl)ethyl]-3-(trifluoromethyl)-5,6,7,8-tetrahydro-1,7-naphthyridine] | < 1 |
| CC(c1nc2cc(-c3nnc(C(F)(F)F)[nH]3)ncc2n1C[C@@H]1CCO1)N1CCc2cc(C(F)(F)F)c(OCc3c(F)cc(Cl)cc3F)nc2C1 (stereo partly drawn) [Compound 83, 2-[(4-chloro-2,6-difluorophenyl)methoxy]-7-[1-(3-{1[(2S)-oxetan-2-yl]methyl}-6-[5-(trifluoromethyl)-4H-1,2,4-triazol-3-yl]-3H-imidazo[4,5-c]pyridin-2-yl)ethyl]-3-(trifluoromethyl)-5,6,7,8-tetrahydro-1,7-naphthyridine] | < 1 |
| CC(c1nc2cc(-c3nnc(C#N)[nH]3)ncc2n1C[C@@H]1CCO1)N1CCc2cc(C(F)(F)F)c(OCc3c(F)cc(Cl)cc3F)nc2C1 (stereo partly drawn) [Compound 84, 5-[2-(1-{2-[(4-chloro-2,6-difluorophenyl)methoxy]-3-(trifluoromethyl)-5,6,7,8-tetrahydro-1,7-naphthyridin-7-yl}ethyl)-3-{1[(2S)-oxetan-2-yl]methyl}-3H-imidazo[4,5-c]pyridin-6-yl]-4H-1,2,4-triazole-3-carbonitrile] | < 1 |
| Fc1cc(Cl)ccc1COc1nc2c(cc1C(F)(F)F)CCN(Cc1nc3cc(-c4nnc(S)[nH]4)ccc3n1C[C@@H]1CCO1)C2 [Compound 85, 5-[2-({2-[(4-chloro-2-fluorophenyl)methoxy]-3-(trifluoromethyl)-5,6,7,8-tetrahydro-1,7-naphthyridin-7-yl}methyl)-1-{[(2S)-oxetan-2-yl]methyl}-1H-1,3-benzodiazol-5-yl]-4H-1,2,4-triazole-3-thiol] | < 1 |
| CSc1nnc(-c2ccc3c(c2)nc(CN2CCc4cc(C(F)(F)F)c(OCc5ccc(Cl)cc5F)nc4C2)n3C[C@@H]2CCO2)[nH]1 [Compound 86, 2-[(4-chloro-2-fluorophenyl)methoxy]-7-({5-[5-(methylsulfanyl)-4H-1,2,4-triazol-3-yl]-1-{[(2S)-oxetan-2-yl]methyl}-1H-1,3-benzodiazol-2-yl}methyl)-3-(trifluoromethyl)-5,6,7,8-tetrahydro-1,7-naphthyridine] | < 1 |
| CS(=O)(=O)c1nnc(-c2ccc3c(c2)nc(CN2CCc4cc(C(F)(F)F)c(OCc5ccc(Cl)cc5F)nc4C2)n3C[C@@H]2CCO2)[nH]1 [Compound 87, 2-[(4-chloro-2-fluorophenyl)methoxy]-7-{[5-(5-methanesulfonyl-4H-1,2,4-triazol-3-yl)-1-{[(2S)-oxetan-2-yl]methyl}-1H-1,3-benzodiazol-2-yl]methyl}-3-(trifluoromethyl)-5,6,7,8-tetrahydro-1,7-naphthyridine] | 1 to 300 |
| Fc1cc(Cl)ccc1COc1nc2c(cc1C(F)(F)F)CCN(Cc1nc3c(F)c(-c4nnn[nH]4)ccc3n1C[C@@H]1CCO1)C2 [Compound 88, 2-[(4-chloro-2-fluorophenyl)methoxy]-7-[(4-fluoro-1-{[(2S)-oxetan-2-yl]methyl}-5-(1H-1,2,3,4-tetrazol-5-yl)-1H-1,3-benzodiazol-2-yl)methyl]-3-(trifluoromethyl)-5,6,7,8-tetrahydro-1,7-naphthyridine] | < 1 |
| Fc1cc(Cl)cc(F)c1COc1nc2c(cc1C(F)(F)F)CCN(Cc1nc3cc(-c4nnn[nH]4)cnc3n1C[C@@H]1CCO1)C2 [Compound 89, 2-[(4-chloro-2,6-difluorophenyl)methoxy]-7-[(3-{[(2S)-oxetan-2-yl]methyl}-6-(11H-1,2,3,4-tetrazol-5-yl)-3H-imidazo[4,5-b]pyridin-2-yl)methyl]-3-(trifluoromethyl)-5,6,7,8-tetrahydro-1,7-naphthyridine] | < 1 |
| Fc1cc(Cl)cc(F)c1COc1nc2c(cc1C(F)(F)F)CCN(Cc1nc3cc(-c4nnn[nH]4)ncc3n1C[C@@H]1CCO1)C2 [Compound 90, 2-[(4-chloro-2,6-difluorophenyl)methoxy]-7-[(3-{[(2S)-oxetan-2-yl]methyl}-6-(11H-1,2,3,4-tetrazol-5-yl)-3H-imidazo[4,5-c]pyridin-2-yl)methyl]-3-(trifluoromethyl)-5,6,7,8-tetrahydro-1,7-naphthyridine] | < 1 |
| Cc1cc2c(nc1OCc1c(F)cc(Cl)cc1F)CN(Cc1nc3cc(-c4nnn[nH]4)ncc3n1C[C@@H]1CCO1)CC2 [Compound 91, 2-[(4-chloro-2,6-difluorophenyl)methoxy]-3-methyl-7-[(3-{[(2S)-oxetan-2-yl]methyl}-6-(1H-1,2,3,4-tetrazol-5-yl)-3H-imidazo[4,5-c]pyridin-2-yl)methyl]-5,6,7,8-tetrahydro-1,7-naphthyridine] | < 1 |
| NC(=O)c1ccc2c(c1)nc(CN1CCc3cc(C(F)(F)F)c(OCc4ccc(Cl)cc4F)nc3C1)n2C[C@@H]1CCO1 [Compound 92, 2-({2-[(4-chloro-2-fluorophenyl)methoxy]-3-(trifluoromethyl)-5,6,7,8-tetrahydro-1,7-naphthyridin-7-yl}methyl)-1-{[(2S)-oxetan-2-yl]methyl}-1H-1,3-benzodiazole-5-carboxamide] | 1 to 300 |
| CS(=O)(=O)NC(=O)c1ccc2c(c1)nc(CN1CCc3cc(C(F)(F)F)c(OCc4ccc(Cl)cc4F)nc3C1)n2C[C@@H]1CCO1 [Compound 93, 2-({2-[(4-chloro-2-fluorophenyl)methoxy]-3-(trifluoromethyl)-5,6,7,8-tetrahydro-1,7-naphthyridin-7-yl}methyl)-N-methanesulfonyl-1-{[(2S)-oxetan-2-yl]methyl}-1H-1,3-benzodiazole-5-carboxamide] | < 1 |
| CNC(=O)c1nnc(-c2cc3nc(CN4CCc5cc(C(F)(F)F)c(OCc6ccc(Cl)cc6F)nc5C4)n(C[C@@H]4CCO4)c3cn2)[nH]1 [Compound 94, 5-[2-({2-[(4-chloro-2-fluorophenyl)methoxy]-3-(trifluoromethyl)-5,6,7,8-tetrahydro-1,7-naphthyridin-7-yl}methyl)-3-{[(2S)-oxetan-2-yl]methyl}-3H-imidazo[4,5-c]pyridin-6-yl]-N-methyl-4H-1,2,4-triazole-3-carboxamide] | < 1 |
| CN(C)C(=O)c1nnc(-c2cc3nc(CN4CCc5cc(C(F)(F)F)c(OCc6ccc(Cl)cc6F)nc5C4)n(C[C@@H]4CCO4)c3cn2)[nH]1 [Compound 95, 5-[2-({2-[(4-chloro-2-fluorophenyl)methoxy]-3-(trifluoromethyl)-5,6,7,8-tetrahydro-1,7-naphthyridin-7-yl}methyl)-3-{[(2S)-oxetan-2-yl]methyl}-3H-imidazo[4,5-c]pyridin-6-yl]-N,N-dimethyl-4H-1,2,4-triazole-3-carboxamide] | 1 to 300 |
| O=c1[nH]nc(-c2cc3nc(CN4CCc5cc(C(F)(F)F)c(OCc6ccc(Cl)cc6F)nc5C4)n(C[C@@H]4CCO4)c3cn2)o1 [Compound 96, 5-[2-({2-[(4-chloro-2-fluorophenyl)methoxy]-3-(trifluoromethyl)-5,6,7,8-tetrahydro-1,7-naphthyridin-7-yl}methyl)-3-{[(2S)-oxetan-2-yl]methyl}-3H-imidazo[4,5-c]pyridin-6-yl]-2,3-dihydro-1,3,4-oxadiazol-2-one] | < 1 |
| O=c1[nH]nc(-c2cc3nc(CN4CCc5cc(C(F)(F)F)c(OCc6ccc(Cl)cc6F)nc5C4)n(C[C@@H]4CCO4)c3cn2)[nH]1 [Compound 97, 3-[2-({2-[(4-chloro-2-fluorophenyl)methoxy]-3-(trifluoromethyl)-5,6,7,8-tetrahydro-1,7-naphthyridin-7-yl}methyl)-3-{[(2S)-oxetan-2-yl]methyl}-3H-imidazo[4,5-c]pyridin-6-yl]-4,5-dihydro-1H-1,2,4-triazol-5-one] | < 1 |
